Values joined by “and” are separate entries in the source; they are usually repeats but may differ in a detail not shown here. Identical values can stand only once.
System: rat uterine decidualization
Experiment: Rat decidualization assay
Assay type: in vivo
Conditions: decrease in EC50 progesterone induced decidual response in rat, p.o.; individual studies
Protocol: 1. Rat Decidualization Assay
The materials and methods used in tins assay are as follows.
The animals are treated once daily for seven days.
Uteri are removed and trimmed of fat.
Decidual response: [(D-C)/C]×100%

Row | IC50 | Structure (SMILES)
1 | 0.21 mg/kg, p.o. and 0.14 mg/kg, p.o. | CC#C[C@]1(O)CC[C@H]2[C@@H]3CCC4=CC(=O)CCC4=C3[C@@H](c3ccc(N(C)C)cc3)C[C@@]21C [RU486]

Same assay, conditions: rat decidual response, s.c.; average of dose-response curves

Row | Estimated average EC50 | Structure (SMILES)
2 | 0.10 mg/kg, s.c. | C#C[C@]1(O)CC[C@H]2[C@@H]3CCC4=CC(=O)CC[C@@H]4[C@H]3C(=C)C[C@@]21CC [3-Ketodesogestrel]

System: not given
Experiment: not given
Conditions: not given

Row | Structure (SMILES) | melting point
3 | O=C1Nc2ccccc2C12CCCC(c1cccc(F)c1)C2 (centres unmarked) [Example 21, 5-(3-Fluorophenyl)spiro[cyclohexane-1,3′-[3H]indol]-2′(1′H)-one] | 171 to 172 °C
4 | COc1cccc(-c2ccc3c(c2)C(C)(C)C(=O)N3)c1 [Example 3, 5-(3-Methoxy-phenyl)-3,3-dimethyl-1,3-dihydro-indol-2-one] | 157 to 158 °C
5 | CCOC(OCC)N1C(=O)C2(CCCCC2)c2cc(-c3cc(F)cc(C#N)c3)ccc21 [Example 50, 3-(1′-Diethoxymethyl-1′,2′-dihydro-2′-oxospiro[cyclohexane-1,3′-[3H]indol]-5′-yl)-5-fluorobenzonitrile] | 146 °C

Continued, values first:

Row | melting point | Structure (SMILES)
6 | 213 to 217 °C | O=C1Nc2ccc(-c3cccc(C=NO)c3F)cc2C12CCCCC2 [Example 68, 2-fluoro-3-(1′,2′-Dihydro-2′-oxospiro[cyclohexane-1,3′-[3H]indol]-5′-yl) benzaldehyde oxime]
7 | 240 to 242 °C | O=C1Nc2ccc(-c3ccc(C=NO)c(F)c3)cc2C12CCCCC2 [Example 64, 2-fluoro-4-(1′,2′-Dihydro-2′-oxospiro[cyclohexane-1,3′-[3H]indol]-5′-yl) benzaldehyde oxime]
8 | 232 to 234 °C | N#Cc1cncc(-c2ccc3c(c2)C2(CCCCC2)C(=O)N3)c1 [Example 17, 5-(1′,2′-Dihydro-2′-oxospiro[cyclohexane-1,3′-[3H]indol]-5′-yl)-3-pyridine carbonitrile]
9 | 190 to 193 °C | N#CCc1cccc(-c2ccc3c(c2)C2(CCCCC2)C(=O)N3)c1 [Example 81, 3-(1′,2′-Dihydro-2′-oxospiro[cyclohexane-1,3′-[3H]indol]-5′-yl)phenylacetonitrile]
10 | 231.2 to 232.3 °C | CC1(C)C(=O)Nc2ccc(-c3cc(F)cc(C#N)c3)cc21 [Example 82, 3-(3,3-Dimethyl-2-oxo-2,3-dihydro-1H-indol-5-yl)-5-fluoro-benzonitrile]
11 | 213 to 216 °C | O=C1Nc2ccc(-c3cccc(O)c3)cc2C12CCCCC2 [Example 33, 5′-(3-Hydroxyphenyl)spiro[cyclohexane-1,3′-[3H]indol]-2′(1′H)-one]
